In patent US10214492B2, “Heterocyclic inhibitors of MCT4” (Vettore, LLC, priority 2016, dated 2019):

Legend:
MCT4 = MCT4 (Homo sapiens (Human), UniProt O15427); test: Assay 3: MCT4-mediated lactate transport in MDA-MB-231 breast cancer cells; assay type: cell-based; details: MDA-MB-231 cells; lactate transport
Description: (§1) 10 μL of a 30 mM DMSO stock of BCECF-AM ester (Life Technologies) is added and the cells are incubated at 37° C. for 5 min. The cells are pelleted (300 g, 5 min), washed once with 1 mL Tyrode's Solution, pH 7.4, re-pelleted (300 g, 5 min), and resuspended in 1 mL Tyrode's Solution, pH 7.4.
MCT4 activity may be assessed by monitoring the intracellular pH change that accompanies lactate/proton symport, using the pH-sensitive fluorescent dye 2′,7′-bis-(carboxyethyl)-5(6)-carboxyfluorescein (BCECF), in a manner similar to that previously reported for MCT1 and MCT4. The following is an exemplary procedure for assaying MCT4 activity of the compounds of Formula (I).

MCT1 = MCT1 (Homo sapiens (Human), UniProt P53985); test: Assay 4: MCT1-mediated lactate transport in BT20 breast cancer cells; assay type: cell-based; details: Table 27
Sequence of MCT1 (P53985 whole entry): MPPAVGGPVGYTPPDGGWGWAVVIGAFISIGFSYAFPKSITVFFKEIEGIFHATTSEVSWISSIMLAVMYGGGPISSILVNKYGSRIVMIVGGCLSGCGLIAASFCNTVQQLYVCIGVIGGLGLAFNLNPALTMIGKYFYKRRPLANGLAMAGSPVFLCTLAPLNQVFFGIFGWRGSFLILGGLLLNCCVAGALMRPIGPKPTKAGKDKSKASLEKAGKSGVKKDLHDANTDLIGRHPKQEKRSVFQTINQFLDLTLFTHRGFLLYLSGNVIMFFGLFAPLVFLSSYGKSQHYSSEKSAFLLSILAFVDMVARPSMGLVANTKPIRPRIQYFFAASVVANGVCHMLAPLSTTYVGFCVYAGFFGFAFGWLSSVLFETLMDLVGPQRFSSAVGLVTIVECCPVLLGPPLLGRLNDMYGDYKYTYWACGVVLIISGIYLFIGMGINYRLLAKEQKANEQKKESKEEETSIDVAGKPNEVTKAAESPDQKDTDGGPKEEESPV
Sequence of MCT1 (P35613 140-385 partner): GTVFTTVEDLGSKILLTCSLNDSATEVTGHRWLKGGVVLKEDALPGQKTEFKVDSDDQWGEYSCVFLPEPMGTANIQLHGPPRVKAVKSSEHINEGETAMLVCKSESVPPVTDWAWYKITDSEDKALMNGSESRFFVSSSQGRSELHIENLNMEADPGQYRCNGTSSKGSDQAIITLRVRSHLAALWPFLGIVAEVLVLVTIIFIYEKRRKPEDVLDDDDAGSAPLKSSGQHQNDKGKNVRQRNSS
Description: as §1
Assay 4: MCT1-Mediated Lactate Transport in BT20 Breast Cancer Cells.
Preparation of BCECF loaded cells are as described for Assay 1. Lactate transport assay is as described for Assay 1, except 10 mM L-lactate (rather than 50 mM) is added.

Sequence of MCT4 (O15427 whole entry, looked up): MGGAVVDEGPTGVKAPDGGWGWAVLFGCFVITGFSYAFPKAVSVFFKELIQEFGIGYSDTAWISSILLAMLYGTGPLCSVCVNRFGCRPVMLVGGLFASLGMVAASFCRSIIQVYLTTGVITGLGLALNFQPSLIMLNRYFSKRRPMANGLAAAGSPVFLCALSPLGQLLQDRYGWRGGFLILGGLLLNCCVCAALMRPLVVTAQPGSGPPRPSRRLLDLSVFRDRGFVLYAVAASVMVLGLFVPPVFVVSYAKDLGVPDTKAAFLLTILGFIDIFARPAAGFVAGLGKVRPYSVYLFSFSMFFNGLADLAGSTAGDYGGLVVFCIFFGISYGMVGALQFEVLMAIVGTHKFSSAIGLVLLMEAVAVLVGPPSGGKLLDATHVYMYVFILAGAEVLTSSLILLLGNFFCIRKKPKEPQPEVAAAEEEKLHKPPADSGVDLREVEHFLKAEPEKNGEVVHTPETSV
Sequence of MCT4 (P35613 whole entry partner, looked up): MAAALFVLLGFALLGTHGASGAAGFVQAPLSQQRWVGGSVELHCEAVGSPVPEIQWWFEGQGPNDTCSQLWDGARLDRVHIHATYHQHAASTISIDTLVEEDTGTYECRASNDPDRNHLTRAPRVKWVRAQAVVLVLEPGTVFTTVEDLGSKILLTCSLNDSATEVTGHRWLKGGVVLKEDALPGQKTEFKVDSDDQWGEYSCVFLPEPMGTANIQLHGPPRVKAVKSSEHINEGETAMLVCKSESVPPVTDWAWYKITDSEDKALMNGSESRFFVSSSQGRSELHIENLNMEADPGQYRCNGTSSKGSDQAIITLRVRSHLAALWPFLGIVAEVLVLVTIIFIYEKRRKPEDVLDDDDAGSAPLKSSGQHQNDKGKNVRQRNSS

| SMILES | IC50 (MCT4) [nM] | IC50 (MCT1) [nM] |
| --- | --- | --- |
| COc1cccc(-c2cc(COC(C)(C)C(=O)O)nn2CC(C)C)c1 [Example 137, 2-([5-(3-Methoxyphenyl)-1-(2-methylpropyl)-1H-pyrazol-3-yl]methoxy)-2-methylpropanoic acid] | 1400 | > 100000 |
| COc1cccc(-c2cc(COC(C)(C)C(=O)O)nn2CC2CCOCC2)c1 [Example 138, 2-([5-(3-Methoxyphenyl)-1-([oxan-4-yl]-methyl)-1H-pyrazol-3-yl]methoxy)-2-methylpropanoic acid] | 535 | > 100000 |
| COc1cccc(-c2cc(COC(C)(C)C(=O)O)nn2Cc2ncccc2Cl)c1 [Example 139, 2-([1-[(3-Chloropyridin-2-yl)methyl]-5-(3-methoxyphenyl)-1H-pyrazol-3-yl)methoxy)-2-methylpropanoic acid] | 9700 | > 100000 |
| CCOc1ccccc1Cn1nc(COC(C)(C)C(=O)O)cc1-c1cccc(OC)c1 [Example 141, 2-([1-[(2-Ethoxyphenyl)methyl]-5-(3-methoxyphenyl)-1H-pyrazol-3-yl]methoxy)-2-methylpropanoic acid] | 6.7 | 33000 |
| COc1cccc(-c2cc(COC(C)(C)C(=O)O)nn2Cc2ccccc2OC2CC2)c1 [Example 142, 2-([1-[(2-Cyclopropoxyphenyl)methyl]-5-(3-methoxyphenyl)-1H-pyrazol-3-yl]methoxy)-2-methylpropanoic acid] | 6.3 | 26000 |
| COc1cccc(-c2cc(/C=C/C(C)(C)C(=O)O)nn2Cc2ccccc2Cl)c1 [Example 143, (3E)-4-[1-[(2-Chlorophenyl)methyl]-5-(3-methoxyphenyl)-1H-pyrazol-3-yl]-2,2-dimethylbut-3-enoic Acid] | 195 | 3300 |
| COc1cccc(-c2cc(CCC(C)(C)C(=O)O)nn2Cc2ccccc2Cl)c1 [Example 144, 4-[1-[(2-chlorophenyl)methyl]-5-(3-methoxyphenyl)-1H-pyrazol-3-yl]-2,2-dimethylbutanoic Acid] | 127 | 2400 |
| CCn1ncc2ccc(-c3cc(COC(C)(C)C(=O)O)nn3Cc3ccccc3Cl)cc21 [Example 151, Sodium 2-([1-[(2-chlorophenyl)methyl]-5-(1-ethyl-1H-indazol-6-yl)-1H-pyrazol-3-yl]methoxy)-2-methylpropanoate] | 3.6 | 70000 |
| CC(C)(OCc1cc(-c2cccc(OC3CC3)c2)n(-c2cccc3cn[nH]c23)n1)C(=O)O [Example 152, 2-([5-(3-Cyclopropoxyphenyl)-1-(1H-indazol-7-yl)-1H-pyrazol-3-yl]methoxy)-2-methylpropanoic Acid] | 80 | > 100000 |
| CC(C)(OCc1cc(-c2cccc(OC3CC3)c2)n(-c2cccc3[nH]ncc23)n1)C(=O)O [Example 153, 2-([5-(3-Cyclopropoxyphenyl)-1-(1H-indazol-4-yl)-1H-pyrazol-3-yl]methoxy)-2-methylpropanoic Acid] | 830 | 44000 |
| Cc1n[nH]c2cccc(-n3nc(COC(C)(C)C(=O)O)cc3-c3cccc(OC4CC4)c3)c12 [Example 154, 2-([5-(3-cyclopropoxyphenyl)-1-(3-methyl-1H-indazol-4-yl)-1H-pyrazol-3-yl]methoxy)-2-methylpropanoic Acid] | 240 | > 100000 |
| CC(C)(OCc1cc(-c2ccccn2)n(-c2ccccc2Cl)n1)C(=O)O [Example 156, 2-([1-(2-Chlorophenyl)-5-(pyridin-2-yl)-1H-pyrazol-3-yl]methoxy)-2-methylpropanoic acid] | 1400 | > 100000 |
| CC(C)(OCc1cc(-c2cccc(OCC3COC3)c2)n(-c2ccccc2F)n1)C(=O)O [Example 158, 2-([1-(2-Fluorophenyl)-5-[3-(oxetan-3-yl-methoxy)phenyl]-1H-pyrazol-3-yl]-methoxy)-2-methylpropanoic acid] | 580 | > 100000 |
| CC(C)(OCc1cc(-c2cccc(OC3CCC3)c2)n(-c2ccccc2F)n1)C(=O)O [Example 159, 2-([5-(3-Cyclobutoxyphenyl)-1-(2-fluoro-phenyl)-1H-pyrazol-3-yl]methoxy)-2-methylpropanoic acid] | 11 | > 100000 |
| CC(C)(OCc1cc(-c2cccc(OC3COC3)c2)n(-c2ccccc2F)n1)C(=O)O [Example 160, 2-([1-(2-Fluorophenyl)-5-[3-(oxetan-3-yl-oxy)phenyl]-1H-pyrazol-3-yl]methoxy)-2-methylpropanoic acid] | 270 | > 100000 |
| CCOc1cc(OCC)cc(-c2cc(COC(C)(C)C(=O)O)nn2-c2ccccc2C)c1 [Example 162, 2-([5-(3,5-Diethoxyphenyl)-1-(2-methyl-phenyl)-1H-pyrazol-3-yl]methoxy)-2-methylpropanoic acid] | 6.4 | 34000 |

| SMILES | IC50 (MCT4) [nM] | IC50 (MCT1) [nM] |
| --- | --- | --- |
| CCn1ncc2ccc(-c3cc(COC(C)(C)C(=O)O)nn3-c3ccccc3N(C)C)cc21 [Example 163, 2-([1-[2-(dimethylamino)phenyl]-5-(1-ethyl-1H-indazol-6-yl)-1Hpyrazol-3-yl]-methoxy)-2-methylpropanoic acid] | 4.4 | 73000 |
| CCOc1ccccc1-n1nc(COC(C)(C)C(=O)O)cc1-c1cc(OC)cc(OC)c1 [Example 164, 2-([5-(3,5-Dimethoxyphenyl)-1-(2-ethoxy-phenyl)-1H-pyrazol-3-yl]methoxy)-2-methylpropanoic acid] | 43 | > 100000 |
| CCn1ncc2ccc(-c3cc(COC(C)(C)C(=O)O)nn3-c3cccc4cnn(C)c34)cc21 [Example 165, 2-([5-(1-Ethyl-1H-indazol-6-yl)-1-(1-methyl-1H-indazol-7-yl)-1H-pyrazol-3-yl]-methoxy)-2-methylpropanoic acid] | 85 | 99000 |
| Cn1ncc2cccc(-n3nc(COC(C)(C)C(=O)O)cc3-c3cccc(OCC4CC4)c3)c21 [Example 169, 2-([5-[3-(Cyclopropylmethoxy)phenyl]-1-(1-methyl-1H-indazol-7-yl)-1H-pyrazol-3-yl]-methoxy)-2-methylpropanoic acid] | 12.2 | 68000 |
| CCOc1cc(OCC)cc(-c2cc(COC(C)(C)C(=O)O)nn2-c2cccc3cnn(C)c23)c1 [Example 171, 2-([5-(3,5-Diethoxyphenyl)-1-(1-methyl-1H-indazol-7-yl)-1H-pyiazol-3-yl]methoxy)-2-methylpropanoic acid] | 12 | 32000 |
| CCn1ncc2cccc(-n3nc(COC(C)(C)C(=O)O)cc3-c3cccc(OCC(C)(C)C)c3)c21 [Example 172, 2-([5-(3-(2,2-Dimethylpropoxy)phenyl]-1-(1-ethyl-1H-indazol-7-yl)-1H-pyrazol-3-yl]-methoxy)-2-methylpropanoic acid] | 0.59 | 33000 |
| CC(C)(OCc1cc(-c2cccc(OCC3COC3)c2)n(-c2ccccc2Cl)n1)C(=O)O [Example 173, 2-([1-(2-Chlorophenyl)-5-[3-(oxetan-3-yl-methoxy)phenyl)-1H-pyraz.ol-3-yl]-methoxy)-2-methylpropanoic acid] | 230 | 66000 |
| Cn1ncc2ccc(-c3cc(COC(C)(C)C(=O)O)nn3-c3ccccc3Cl)cc21 [Example 174, 2-([1-(2-Chlorophenyl)-5-(1-methyl-1H-indazol-6-yl)-1H-pyrazol-3-yl]methoxy)-2-methylpropanoic acid] | 101 | > 100000 |
| CC(C)(OCc1cc(-c2cccc(OC3COC3)c2)n(-c2ccccc2Cl)n1)C(=O)O [Example 176, 2-([1-(2-Chlorophenyl)-5-[3-(oxetan-3-yl-oxy)phenyl]-1Hpyrazol-3-yl]methoxy)-2-methylpropanoic acid] | 180 | > 100000 |
| CC(C)(OCc1cc(-c2cccc(OC3CC3)c2)n(-c2ccccc2F)n1)C(=O)O [Example 181, 2-([5-(3-cyclopropoxyphenyl)-1-(2-fluorophenyl)-1H-pyrazol-3-yl]methoxy)-2-methylpropanoate] | 20 | 25000 |
| CC(C)(OCc1cc(-c2cccc(OC3CC3)c2)n(-c2ccccc2Br)n1)C(=O)O [Example 182, 2-([1-(2-Bromophenyl)-5-(3-cyclopropoxy-phenyl)-1H-pyrazol-3-yl]methoxy)-2-methylpropanoic acid] | 5.9 | 12000 |
| CC(C)(OCc1cc(-c2cccc(OC3CC3)c2)n(-c2ccc(Cl)cc2Cl)n1)C(=O)O [Example 184, 2-([5-(3-Cyclopropoxyphenyl)-1-(2,4-dichlorophenyl)-1H-pyrazol-3-yl]methoxy)-2-methylpropanoic acid] | 22 | > 33000 |
| CC(C)(OCc1cc(-c2cccc(OC3CC3)c2)n(-c2cc(Cl)ccc2Cl)n1)C(=O)O [Example 185, 2-([5-(3-Cyclopropoxyphenyl)-1-(2,5-dichlorophenyl)-1H-pyrazol-3-yl]methoxy)-2-methylpropanoic acid] | 9.3 | 17000 |
| CC(C)(OCc1cc(-c2cccc(OC3CC3)c2)n(-c2ccccc2OC(F)F)n1)C(=O)O [Example 186, 2-([5-(3-Cyclopropoxyphenyl)-1-[2-(difluoromethoxy)phenyl]-1H-pyrazol-3-yl]-methoxy)-2-methylpropanoic acid] | 21.5 | 90000 |
| CCOc1ccccc1-n1nc(COC(C)(C)C(=O)O)cc1-c1cccc(OC2CC2)c1 [Example 187, 2-([5-(3-cyclopropoxyphenyl)-1-(2-ethoxy-phenyl)-1H-pyrazol-3-yl]methoxy)-2-methylpropanoic acid] | 43 | 63000 |
